Common to all, as to test: growth of human tumour cells (NCI), 48 h
Experiment [1] has as its system A498.
Experiment [2] concerns COLO 205.
For experiment [3], the system named is EKVX.
Experiment [4] has as its system HCC 2998.
For experiment [5], the system named is HCT-116.
The subject of experiment [6] is HOP-92.
In experiment [7] the test system is HT-29.
Experiment [8] has as its system IGROV-1.
The subject of experiment [9] is K562.
The test system of experiment [10] is LOX IMVI.
Experiment [11] has as its system M19-MEL.
Experiment [12] deals with NCI-H522.
The test system of experiment [13] is OVCAR-4.
The subject of experiment [14] is RPMI-8226.
Experiment [15] concerns SK-OV-3.
Experiment [16] deals with SW-620.
The subject of experiment [17] is UACC-257.
The test system of experiment [18] is BT-549.
Experiment [19] concerns MDA-MB-231.
In experiment [20] the test system is PC-3.

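Growth conditions: 96-well plates. Treatment: test compound, 48 hours, 5 concentrations. Analysis: linear interpolation between bracketing concentrations; unreached endpoints set to highest concentration. At the GI50, growth is halved.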 Activity calls are given as the source filed them. Cut-off read from the data, not from the text of the source: active = GI50 up to about 1.1 µM and inactive = higher.

`O=C(/C=C/c1ccccc1O)c1ccccc1O`: the GI50 in experiment [1] was > 100 µM (inactive); in [2] it was > 100 µM (inactive); in experiment [3], > 100 µM (inactive); in experiment [4] it was > 100 µM (inactive); in [5] it was 78 µM (inactive); in experiment [6] it was 46.7 µM (inactive). Besides, the GI50 is > 100 µM (inactive) in experiment [7]; > 100 µM (inactive) in experiment [8]; 19.8 µM (inactive) in experiment [9]; > 100 µM (inactive) in [10]; > 100 µM (inactive) in [11]; > 100 µM (inactive) in experiment [12]. Besides, the GI50 was > 100 µM (inactive) in experiment [13]; 40 µM (inactive) in experiment [14]; > 100 µM (inactive) in experiment [15]; > 100 µM (inactive) in [16]; > 100 µM (inactive) in experiment [17].
With `CC(C)(CN1CCCCC1)C(=O)/C=C/c1ccc(Br)cc1`, the GI50 is 2.58 µM (inactive) in experiment [1]; 2.25 µM (inactive) in experiment [2]; 2.12 µM (inactive) in [3]; 16.5 µM (inactive) in experiment [4]; 2.77 µM (inactive) in [5]; 0.875 µM (active) in experiment [6]. Also, the GI50 in experiment [7] is 3.1 µM (inactive); in [8], 2.79 µM (inactive); in experiment [9], 2.59 µM (inactive); in experiment [10], 2.03 µM (inactive); in [11], 14.8 µM (inactive); in [12], 1.82 µM (inactive). For the same compound, the GI50 in experiment [13] is 4.31 µM (inactive); in [14] it was 3.07 µM (inactive); in experiment [15] it was 3.04 µM (inactive); in [16] it was 2.56 µM (inactive); in experiment [17], 6.31 µM (inactive).
Take `COc1ccc(NC(=O)/C(Cc2nc3ccccc3nc2O)=N\O)c(OC)c1`: the GI50 in [1], in experiment [2], in experiment [3], in experiment [4], in experiment [5] and in experiment [6] was > 100 µM (inactive) in each case. In addition, the GI50 in [7], in [8], in experiment [9], in experiment [10], in experiment [11] and in [12] was > 100 µM (inactive) in each case. Moreover, the GI50 in [13], in experiment [14], in experiment [15], in experiment [16] and in experiment [17] was > 100 µM (inactive) throughout.
Turning to `CC1(C)OC2C(CCP(=O)(O)O)OC(c3nc(C(N)=O)cs3)C2O1` (stereo not drawn), the GI50 in experiment [1], in [2], in experiment [3], in experiment [4], in experiment [5] and in [6] was > 100 µM (inactive) each time. Also, the GI50 in [7], in experiment [8], in experiment [9], in experiment [10], in [11] and in experiment [12] was > 100 µM (inactive) throughout. The GI50 in [13], in [14], in [15], in experiment [16] and in experiment [17] was > 100 µM (inactive) each time.
`CCN(CC)CCCCC1CCN(CC(=O)N2c3ccccc3NC(=O)CC2C)CC1` (stereo not drawn): the GI50 in experiment [1], in experiment [2], in [3], in experiment [4], in experiment [5] and in [6] was > 100 µM (inactive) in each case. The GI50 in [7] is > 100 µM (inactive); in [8], > 100 µM (inactive); in experiment [9], > 100 µM (inactive); in experiment [10] it was 19.4 µM (inactive); in experiment [11], > 100 µM (inactive); in [12], 30.3 µM (inactive). Moreover, the GI50 is > 100 µM (inactive) in experiment [13]; 88.1 µM (inactive) in [14]; > 100 µM (inactive) in [15]; > 100 µM (inactive) in [16]; > 100 µM (inactive) in experiment [17].
For `O=C(/C=C/c1ccccc1Cl)c1cccc2ccccc12`, the GI50 in [1] was 14.4 µM (inactive); in experiment [2] it was 19 µM (inactive); in [3], 12.8 µM (inactive); in experiment [4], 14.5 µM (inactive); in experiment [5], 3.71 µM (inactive); in experiment [6] it was 20.3 µM (inactive). The GI50 was 10.4 µM (inactive) in experiment [7]; 15.3 µM (inactive) in experiment [8]; 4.38 µM (inactive) in experiment [9]; 11.4 µM (inactive) in experiment [10]; 11 µM (inactive) in [11]; 6.65 µM (inactive) in [12]. The GI50 was 4.81 µM (inactive) in [13]; 17.2 µM (inactive) in experiment [14]; 18.9 µM (inactive) in experiment [15]; 1.88 µM (inactive) in experiment [16]; 18 µM (inactive) in experiment [17].
Regarding `O=C1CC2CCCC23CC2(CCN13)OCCO2` (stereo not drawn), the GI50 in [1], in [2], in experiment [3], in experiment [4], in [5] and in [6] was > 100 µM (inactive) in each case. The GI50 in experiment [7], in [8], in experiment [9], in [10], in experiment [11] and in [12] was > 100 µM (inactive) each time. Also, the GI50 in experiment [13], in experiment [14], in experiment [15], in [16] and in experiment [17] was > 100 µM (inactive) throughout.
As for `COc1ccc(C(=O)C2=NON3OC23C(=O)c2ccc(OC)cc2)cc1` (stereo not drawn), the GI50 was 13.7 µM (inactive) in experiment [1]; 7.62 µM (inactive) in experiment [2]; 19.3 µM (inactive) in [3]; 18.1 µM (inactive) in experiment [4]; 7.26 µM (inactive) in experiment [5]; 2.59 µM (inactive) in experiment [6]. In addition, the GI50 was 22.4 µM (inactive) in [7]; 11.6 µM (inactive) in [8]; 3.12 µM (inactive) in experiment [9]; 5.58 µM (inactive) in [10]; 16.5 µM (inactive) in experiment [11]; 1.82 µM (inactive) in experiment [12]. Moreover, the GI50 is 5.74 µM (inactive) in [13]; 3.37 µM (inactive) in experiment [14]; 19.5 µM (inactive) in [15]; 3.31 µM (inactive) in experiment [16]; 18.9 µM (inactive) in [17].
On to `N#CC(NNC(=O)Cc1ccccc1)c1ccccc1O` (stereo not drawn), for which the GI50 in [1] is > 48.9 µM (inactive); in [18], 21 µM (inactive); in experiment [2], 12.1 µM (inactive); in experiment [3], 8.41 µM (inactive); in experiment [4], 12.7 µM (inactive); in [5], 7.26 µM (inactive). Besides, the GI50 in experiment [6] was 23.3 µM (inactive); in experiment [7], 9.18 µM (inactive); in experiment [8], 21.2 µM (inactive); in experiment [9] it was 11.3 µM (inactive); in experiment [10], 4.98 µM (inactive); in experiment [11] it was 7.96 µM (inactive). Also, the GI50 in experiment [19] is 8.2 µM (inactive); in experiment [12] it was 4.88 µM (inactive); in experiment [13] it was 11.8 µM (inactive); in experiment [20] it was 5.79 µM (inactive); in [14], 6.87 µM (inactive); in [15] it was 14.5 µM (inactive). Also, the figures for the GI50 in experiment [16] and in experiment [17] were 10.2 µM (inactive) and 14 µM (inactive), respectively.
For `COc1ccc(CCc2cc(OC)cc(OC)c2)cc1`, the GI50 is 17 µM (inactive) in experiment [1]; 12 µM (inactive) in experiment [2]; 45.1 µM (inactive) in experiment [3]; 10.2 µM (inactive) in experiment [4]; 24.3 µM (inactive) in [5]; 38.3 µM (inactive) in experiment [6]. The GI50 in [7] is 6.11 µM (inactive); in [8] it was 43 µM (inactive); in experiment [9] it was 3.34 µM (inactive); in experiment [10] it was 38.8 µM (inactive); in experiment [11], 25.3 µM (inactive); in experiment [12], 4.98 µM (inactive). For the same compound, the GI50 in [13] is 27 µM (inactive); in experiment [14], 16.1 µM (inactive); in experiment [15], 36.6 µM (inactive); in experiment [16], 5.93 µM (inactive); in [17] it was 51.4 µM (inactive).

The values are drawn from ChEMBL document CHEMBL1201862, “PubChem BioAssay data set” (2004).
